Article PMC10218498, “Exploring BenzylethoxyAryl Urea Scaffolds for Multitarget Immunomodulation Therapies” (International Journal of Molecular Sciences, 2023)

Tests used:
[1] = tested on: CD11b; experiment: CD11b relative quantification by flow cytometry in co-cultured THP-1; format: cell-based, human; settings: 20 μM; for % CD11b: related to non-treated cells; for reduction of CD11b: excess of cancer cells (2:1)
Experimental: Reducing the expression of CD11b has become a promising target for immune modulation in anti-cancer therapies. For that reason, we decided to study the effect of our compounds on CD11b in THP-1 cells co-cultured with HT-29. We also determine the relative amount of CD80, a common surface marker for monocytes. This study was performed on the collected cell culture from each well and gating living THP-1 cell population.
To study the effect of the compounds on every biological target in co-cultured THP-1 immune cells with cancer cell line HT-29, the compounds were incubated for 24 h/48 h as described before.
To detect membrane CD11b and CD80, after the cell incubation, suspended THP-1 was collected from the cell culture of each sample well, fixed with 4% in PBS paraformaldehyde, and stained with FITC Mouse monoclonal Anti-Human CD80 (Sigma-Aldrich, S. Louis, MO, USA, SAB4700142) and Alexa Fluor® 647 Rabbit monoclonal Anti-CD11b (Merck, S. Louis, MO, USA, #MABF366).

[2] = biological target: VEGFR-2 (Homo sapiens, UniProt P35968); experiment: VEGFR-2 relative quantification by flow cytometry in MCF-7; format: cell-based; set-up: Both membrane and total PD-L1 and VEGFR-2 were relatively determined using DMSO-treated cells as a negative control; endogenous in cells; host or cells: MCF-7; settings: MCF-7, 20 µM, 24 h, control = 100
Experimental: Then, we determined the effect of the selected compounds on the biological targets, PD-L1 and VEGFR-2, by flow cytometry. […] As usually, the assay was performed at a concentration of 20 µM for 24 h.
To study the effect of the compounds on every biological target in cancer cell lines, the compounds were used at 20 µM dose.
For the assay, 10^5 cells per well were incubated for 24 h with the corresponding dose of the tested compound in a total volume of 500 μL of their growth media.
On the one hand, to detect total PD-L1 and VEGFR-2, after the cell treatments, they were collected and fixed with 4% in PBS paraformaldehyde.
On the other hand, to detect membrane PD-L1 and VEGFR-2, the process was the same, avoiding the treatment with 0.5% in PBS TritonTM X-100 step.

[3] = tested on: human microvessel endothelial cells (HMEC-1); experiment: MTT cell proliferation assay, HMEC-1; format: cell-based; settings: 48 h of treatment
Experimental: This assay allowed us to establish the corresponding IC50 values (expressed as the concentration, in μM, at which 50% of cell viability is achieved), shown in Table 1.
In 96-well plates, 5 × 10^3 (HT-29, MCF-7, A549, HMEC-1, Jurkat, and HEK-293) cells per well were incubated with serial dilutions of the tested compounds in a total volume of 100 μL of their respective growth media. The 3-(4,5-dimethylthiazol-2-yl)-2,5-diphenyltetrazolium bromide (MTT; Sigma Chemical Co.) dye reduction assay in 96-well microplates was used. After 2 days of incubation (37 °C, 5% CO2 in a humid atmosphere), 10 μL of MTT (5 mg/mL in phosphate-buffered saline, PBS) was added to each well, and the plate was incubated for a further 3 h (37 °C). After that, the supernatant was discarded and replaced by 100 µL of DMSO to dissolve formazan crystals. The absorbance was then read at 550 nm by spectrophotometry. For all concentrations of compound, cell viability was expressed as the percentage of the ratio between the mean absorbance of treated cells and the mean absorbance of untreated cells. Three independent experiments were performed, and the IC50 values (i.e., concentration half inhibiting cell proliferation) were graphically determined using GraphPad Prism 4 software.

[4] = tested on: LCK; experiment: Immunoblotting of OT-1 CTL signaling proteins: LCK; format: cell-based, mice; settings: OT-1, 20 μM, 24 h
Source text: (§1) We next studied the effect of our compounds on the signaling cascade downstream of the TCR. […] However, both the expression and phosphorylation of LCK were increased in response to all compounds. The effects on ZAP70 and LAT were more complex, with opposing effects on total protein expression versus phosphorylation. Thus, all compounds modulated signaling downstream of the TCR in a manner that is likely to impact T-cell activation and activity.
(§2) CD8+ cells were obtained from the inguinal, axillary, brachial, and mesenteric lymph nodes previously collected from OT-1 mice. Lymph node cells were isolated by mashing through a […] cell strainer. Cells were resuspended in IMDM cell media at a concentration of 0.3 million cells/mL. N4 ovalbumin peptide was added at a concentration of 10 nM, and cells were incubated for 48 h at 5% CO2, 37 °C. On day 2 from recollection, cells were pelleted at 1300 rpm for 5 min and washed with PBS to remove N4 peptide. The cell pellet was resuspended in fresh IMDM media in a new flask in a 0.3 million cells/mL and supplemented with IL-2 at 20 ng/mL. After incubation for a further 48 h (day 4), cells were re-seeded in fresh IMDM media at a concentration of 0.3 million cells/mL supplemented with IL-2 at 20 ng/mL. Cells were cultured for a further 48 h prior to use on day 6 in functional assays.
(§3) To study the effect of the compounds in the signaling pathway of CTLs, the compound was incubated for 24 h at 20 μM. After this time, cells were collected and washed twice in PBS and lysed in radioimmunoprecipitation assay (RIPA) lysis buffer (50 mM tris-HCl at pH 7.4, 150 mM sodium chloride, 5 mM EGTA, 0.1% SDS, 1% NP-40, and 1% deoxycholate) supplemented with a protease and phosphatase inhibitor cocktail (mini complete ULTRA Protease tablet and phosSTOP tablet from Roche, Basel, Switzerland). Lysates were clarified by high-speed centrifugation (17,000 rpm for 15 min at 4 °C). Protein concentration was measured using a Micro BCA Protein Assay (Thermo Scientific, Waltham, MA, USA), and 10 μg to 30 μg of total protein were supplemented with 2X SDS sample buffer [tris (pH 6.8), 20% glycerol, 5% SDS, b-mercaptoethanol, and bromophenol blue) and boiled at 95 °C for 5 min. […] Bound Ab was detected by incubation with anti-rabbit and anti-mouse horseradish peroxidase secondary Ab (Cell Signaling Technology) and visualized using the Bio-Rad ChemiDoc MP Imaging System.

[5] = tested on: LAT; experiment: Immunoblotting of OT-1 CTL signaling proteins: LAT; format: cell-based, mice; settings: OT-1, 20 μM, 24 h
Source text: as §1, §2, §3

[6] = membrane THP-1, 1:5 HT-29/THP-1, 24 h
[7] = membrane THP-1, 2:1 HT-29/THP-1, 48 h

Chain of VEGFR-2 (P35968 20-1356): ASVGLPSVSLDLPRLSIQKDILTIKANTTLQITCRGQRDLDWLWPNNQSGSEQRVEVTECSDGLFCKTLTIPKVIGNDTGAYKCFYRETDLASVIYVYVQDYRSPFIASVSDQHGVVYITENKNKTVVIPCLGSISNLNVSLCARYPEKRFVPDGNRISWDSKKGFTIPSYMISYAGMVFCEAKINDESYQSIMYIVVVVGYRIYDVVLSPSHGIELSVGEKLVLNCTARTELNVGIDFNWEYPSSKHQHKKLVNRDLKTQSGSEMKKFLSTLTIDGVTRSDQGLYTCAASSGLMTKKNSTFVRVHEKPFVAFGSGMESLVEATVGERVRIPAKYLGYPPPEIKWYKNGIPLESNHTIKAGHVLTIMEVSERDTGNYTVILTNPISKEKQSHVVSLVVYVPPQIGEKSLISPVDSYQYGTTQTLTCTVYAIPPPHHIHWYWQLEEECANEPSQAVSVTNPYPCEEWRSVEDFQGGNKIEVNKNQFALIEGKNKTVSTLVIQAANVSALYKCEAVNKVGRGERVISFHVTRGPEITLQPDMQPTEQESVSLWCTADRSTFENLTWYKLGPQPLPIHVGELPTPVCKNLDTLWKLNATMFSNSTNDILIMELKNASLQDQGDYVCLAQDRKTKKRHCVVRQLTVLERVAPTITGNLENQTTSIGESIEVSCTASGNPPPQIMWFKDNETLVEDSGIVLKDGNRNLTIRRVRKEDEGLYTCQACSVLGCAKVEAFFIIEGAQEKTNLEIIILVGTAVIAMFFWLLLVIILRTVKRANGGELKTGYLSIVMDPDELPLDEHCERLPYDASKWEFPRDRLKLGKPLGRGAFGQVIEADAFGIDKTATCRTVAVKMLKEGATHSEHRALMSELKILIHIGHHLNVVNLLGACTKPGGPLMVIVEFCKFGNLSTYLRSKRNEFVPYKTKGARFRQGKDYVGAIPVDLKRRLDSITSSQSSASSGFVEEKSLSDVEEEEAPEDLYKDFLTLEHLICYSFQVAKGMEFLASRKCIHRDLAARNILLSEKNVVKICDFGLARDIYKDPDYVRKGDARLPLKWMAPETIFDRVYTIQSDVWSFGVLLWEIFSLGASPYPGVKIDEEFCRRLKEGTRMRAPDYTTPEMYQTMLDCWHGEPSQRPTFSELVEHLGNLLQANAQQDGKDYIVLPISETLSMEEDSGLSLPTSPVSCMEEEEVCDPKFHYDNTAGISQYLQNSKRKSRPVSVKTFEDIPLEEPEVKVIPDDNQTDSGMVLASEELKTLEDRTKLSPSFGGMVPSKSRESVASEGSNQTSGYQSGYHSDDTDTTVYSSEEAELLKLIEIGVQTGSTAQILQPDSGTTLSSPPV

| SMILES | % CD11b [1, 6] | % CD11b [1, 7] | % VEGFR-2 Memb. [2] | % VEGFR-2 Total [2] | IC50 [3] | reduction of CD11b ([1]; 48 h) | LCK protein expression (Western blot quantification) [4] | pY394-LCK protein expression (Western blot quantification) [4] | pY505-LCK protein expression (Western blot quantification) [4] | LAT protein expression (Western blot quantification) [5] | pLAT protein expression (Western blot quantification) [5] |
| --- | --- | --- | --- | --- | --- | --- | --- | --- | --- | --- | --- |
| Cc1c(COc2ccc(CN3CCCCC3C(=O)O)cc2Br)cccc1-c1ccccc1 (stereo not shown) [BMS-8, reference compound] | 91 ± 1% | 80 ± 2% | 107 ± 4% | 93% |  |  |  |  |  |  |  |
| COc1ccc(COc2cccc(NC(=O)Nc3ccc(F)cc3)c2)cc1 [Compound 2] | 92 ± 9% | 86 ± 3% | 91 ± 12% | 72 ± 10% | > 100 µM | about 20% | 176 | 143 | 140 | 63 |  |
| COc1ccc(COc2cccc(NC(=O)Nc3ccc(Br)cc3)c2)cc1 [Compound 8] | 91 ± 4% | 93 ± 25% | 82 ± 6% | 88 ± 11% | > 100 µM |  |  |  |  | 88 | 8 |
| COc1ccc(COc2cccc(NC(=O)Nc3ccc(OC)cc3)c2)cc1 [Compound 11] | 95 ± 6% | 83 ± 5% | 81 ± 11% | 83 ± 21% | > 100 µM | about 20% | 168 | 184 | 157 | 85 | 10 |
| COc1ccc(COc2cccc(NC(=O)Oc3ccccc3)c2)cc1 [Compound 14] | 78 ± 11% | 81 ± 8% | 89 ± 11% | 110 ± 12% | > 100 µM | about 20% | 175 | 130 | 145 | 103 | 21 |
